Assays:
Type in all cases: biochemical
[1] = molecular target: T1, human fibroblasts derived MMP-1 (type I collagenase) (Homo sapiens, UniProt P03956); test: MMP-1 (type I collagenase) inhibitory activities, fluorogenic substrate enzyme assay; conditions: for inhibition at 10 µM: at 10^−5M, NE means no effect, read-out: MMP-1 inhibition percent; for IC50: 37° C., 4 h, substrate 10 μM
T1 construct: human fibroblasts derived MMP-1 (Yagai Co. Ltd.) as enzyme; purchased Yagai Co. Ltd; host or cells: human fibroblasts
T1 sequence (P03956 100-469): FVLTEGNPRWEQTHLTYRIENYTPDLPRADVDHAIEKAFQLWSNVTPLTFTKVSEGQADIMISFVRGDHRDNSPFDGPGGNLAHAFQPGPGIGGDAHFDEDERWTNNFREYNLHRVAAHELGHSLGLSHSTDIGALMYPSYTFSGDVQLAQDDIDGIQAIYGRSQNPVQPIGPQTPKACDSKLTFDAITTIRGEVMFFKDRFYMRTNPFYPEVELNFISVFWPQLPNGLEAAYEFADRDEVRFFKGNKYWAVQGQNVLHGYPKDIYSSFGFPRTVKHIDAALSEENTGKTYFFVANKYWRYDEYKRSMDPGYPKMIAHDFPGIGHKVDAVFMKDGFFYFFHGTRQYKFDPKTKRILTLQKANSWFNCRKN
Experimental: Examination 1: MMP-1 (type I collagenase) inhibitory activities.
Inhibitory activities of MMP-1 (type I collagenase) activities were estimated by enzyme assay using human fibroblasts derived MMP-1 (Yagai Co. Ltd.) as enzyme, and MOCAc-Pro-Leu-Gly-Leu-A2pr(Dnp)-Ala-Arg-NH2 (Peptide Research Center, 3163-v) as substrate. Thus, MMP-1 (0.01 U/ml), test compound (10^−10˜10^−5 M), and the substrate (10 μM) were incubated in 50 mM Tris-HCl buffer (pH 7.4) containing 0.2M NaCl, 10 mM CaCl2, 0.02% NaN3, and 0.05% Brij 35 at 37° C. for 4 h. The reaction was stopped by adding of 4 volumes of sodium acetate buffer (pH 4.0), and the degradation of substrate was calculated by measurement with a fluorescence intensity (λ ex 328 nm, λ em 393 nm). Inhibition of degradation of substrate in the presence of compound was determined by comparison with the degradation percent of substrate in the absence of compound, and concentration of 50% inhibition (IC50 value) was calculated.

MMP-2 (gelatinase A) = molecular target: T2, MMP-2 (gelatinase A) (Homo sapiens, UniProt P08253); test: MMP-2 (gelatinase A) inhibitory activities, fluorogenic substrate enzyme assay; conditions: 42° C., 2 h, substrate 10 μM
T2 construct: made in house; host or cells: COS-1 cells (secreted into culture medium)
T2 sequence (P08253 110-660): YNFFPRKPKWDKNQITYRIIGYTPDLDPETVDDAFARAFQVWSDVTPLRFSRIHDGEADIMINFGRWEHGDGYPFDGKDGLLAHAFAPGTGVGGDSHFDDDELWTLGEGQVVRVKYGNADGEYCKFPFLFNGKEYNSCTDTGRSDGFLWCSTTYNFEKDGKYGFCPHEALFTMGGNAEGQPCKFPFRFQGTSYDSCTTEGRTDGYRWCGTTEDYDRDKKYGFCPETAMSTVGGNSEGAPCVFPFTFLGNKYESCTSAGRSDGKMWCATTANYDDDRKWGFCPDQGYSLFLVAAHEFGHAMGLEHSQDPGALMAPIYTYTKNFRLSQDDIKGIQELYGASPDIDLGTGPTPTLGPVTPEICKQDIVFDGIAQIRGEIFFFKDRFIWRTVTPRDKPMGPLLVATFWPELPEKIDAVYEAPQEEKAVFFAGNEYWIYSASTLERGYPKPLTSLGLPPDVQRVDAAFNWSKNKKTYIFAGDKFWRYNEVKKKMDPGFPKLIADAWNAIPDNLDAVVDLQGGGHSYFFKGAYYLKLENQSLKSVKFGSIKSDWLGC
Experimental: (§1) Examination 2: MMP-2 (gelatinase A) and MMP-9 (gelatinase B) inhibitory activities.
(§2) Pro MMP-2 was obtained from culture medium separated from human pro-MMP-2 cDNA tranfected COS-1 cells. Pro MMP-2 activated by 1 mM (4-aminophenyl) mercury acetic acid and MMP-9, derived human fibrosarcome (Yagai Co. Ltd.), were used as enzyme respectively. Inhibition of both enzyme activities were estimated by enzyme assay using MOCAc-Pro-Leu-Gly-Leu-A2pr(Dnp)-Ala-Arg-NH2 (Peptide Research Center, 3163-v) as substrate. Thus, MMP-2 or MMP-9 (0.01 U/ml), test compound (several concentrations), and the substrate (10 μM) were incubated in 50 mM Tris - HCl buffer (pH 7.4) containing 0.2M NaCl, 10 mM CaCl2, 0.02% NaN3, and 0.05% Brij 35 at 42° C. for 2 h (MMP-2), 3 h (MMP-9) respectively. Inhibition of degradation of substrate in the presence of compound was determined by comparison with the degradation of substrate in the absence of compound, and concentration of 50% inhibition (IC50 value) was calculated.

Δ MT1-MMP (Δ MMP-14) = molecular target: T3, Δ MT1-MMP (Δ MMP-14) (Homo sapiens, UniProt P50281); test: Δ MT1-MMP (Δ MMP-14) inhibitory activities, fluorogenic substrate enzyme assay; conditions: 37° C., 30 min, substrate 10 μM; read-out: ΔMMP-14 IC50
T3 construct: ProMT1-MMP cDNA encoded extracellular domain of pro Δ MT1-MMP was tranfected E. coli BL21DE3; made in house; host or cells: E. coli BL21DE3 (inclusion bodies, 8M urea, ion exchange)
Text: Examination 3: Δ MT1-MMP (Δ MMP-14) inhibitory activities.
ProMT1-MMP cDNA encoded extracellular domain of pro Δ MT1-MMP was tranfected E. coli BL21DE3, pro Δ MT1-MMP collected as inclusion body was solved using 8M urea, and it was pulified by ion exchenge column chlomatography. Inhibition of enzyme activities were estimated by enzyme assay using activated Δ MT1-MMP, obtained from activation of pro Δ MT1-MMP by 10 μ/ml tripsine, and MOCAc-Pro-Leu-Gly-Leu-A2pr(Dnp)-Ala-Arg-NH2 (Peptide Research Center, 3163-v) as substrate. Thus, Δ MT1-MMP, test compound (several concentrations), and the substrate (10 μM) were incubated in 50 mM Tris - HCl buffer (pH 7.4) containing 0.2M NaCl, 10 mM CaCl2, 0.02% NaN3, 0.05% Brij 35, and 10 μM leuipeputine at 37° C. for 30 min. The reaction was stopped by adding of 4 volumes of sodium acetate buffer (pH 4.0), and the degradation of substrate was calculated by measurement with a fluorescence intensity (λ ex 328 nm, λ em 393 nm). Inhibition of degradation of substrate in the presence of compound was determined by comparison with the degradation of substrate in the absence of compound, and concentration of 50% inhibition (IC50 value) was calculated.

MMP-9 (gelatinase B) = molecular target: T4, MMP-9 (gelatinase B) (Homo sapiens, UniProt P14780); test: MMP-9 (gelatinase B) inhibitory activities, fluorogenic substrate enzyme assay; conditions: for IC50: 42° C., 3 h, substrate 10 μM
T4 construct: MMP-9, derived human fibrosarcome (Yagai Co. Ltd.), were used as enzyme respectively; purchased Yagai Co. Ltd; host or cells: human fibrosarcoma
Experimental: as §1, §2

T4 sequence (P14780 94-707): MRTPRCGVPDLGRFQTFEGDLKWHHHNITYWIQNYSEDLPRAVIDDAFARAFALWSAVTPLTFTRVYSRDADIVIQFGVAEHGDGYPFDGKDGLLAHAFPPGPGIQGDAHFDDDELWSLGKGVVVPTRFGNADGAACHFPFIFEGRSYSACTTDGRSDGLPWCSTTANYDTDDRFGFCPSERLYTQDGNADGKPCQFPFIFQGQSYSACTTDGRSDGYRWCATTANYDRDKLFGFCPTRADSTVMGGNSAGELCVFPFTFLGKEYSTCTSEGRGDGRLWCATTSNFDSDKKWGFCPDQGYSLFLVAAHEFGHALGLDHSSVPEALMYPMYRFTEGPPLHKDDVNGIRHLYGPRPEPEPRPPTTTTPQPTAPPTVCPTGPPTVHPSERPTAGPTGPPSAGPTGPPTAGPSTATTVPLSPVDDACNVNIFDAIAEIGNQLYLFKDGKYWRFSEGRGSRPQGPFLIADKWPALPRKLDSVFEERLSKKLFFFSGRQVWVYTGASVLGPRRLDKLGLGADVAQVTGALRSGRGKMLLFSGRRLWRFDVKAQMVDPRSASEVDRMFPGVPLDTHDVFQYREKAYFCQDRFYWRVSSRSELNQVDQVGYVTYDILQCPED

inhibition at 10 µM [1] [%] | IC50 (MMP-2 (gelatinase A)) [nM] | IC50 (Δ MT1-MMP (Δ MMP-14)) [nM] | IC50 (MMP-9 (gelatinase B)) [nM] | IC50 [1] [nM] | inhibition at 10 µM (MMP-9 (gelatinase B); at 10^−5M, read-out: MMP-9 inhibition percent) [%] | Compound
45.3 | 1.7 | 16 | 1.4 | – | – | COc1ccc(S(=O)(=O)N2CC[C@@H](NC(=O)CCC(C)C)C[C@@H]2C(=O)NO)cc1 [Compound 45, (2R, 4R)-2-Hydroxyaminocarbonyl-1-(4-methoxybenzenesulfonyl)-4-(4-methylpentanoylamino)-piperidine]
– | 1.5 | 4.3 | 0.88 | 7600 | – | COc1ccc(OCCCCC(=O)N[C@@H]2CCN(S(=O)(=O)c3ccc(OC)cc3)[C@@H](C(=O)NO)C2)cc1 [Compound 46, (2R, 4R)-2-Hydroxyaminocarbonyl-1-(4-methoxybenzenesulfonyl)-4-[5-(4-methoxyphenoxy)pentanoylamino]-piperidine]
– | 1.7 | 3.2 | 1.3 | 5500 | – | COc1ccc(C(=O)N[C@@H]2CCN(S(=O)(=O)c3ccc(OC)cc3)[C@@H](C(=O)NO)C2)cc1 [Compound 47, (2R, 4R)-2-Hydroxyaminocarbonyl-1-(4-methoxybenzenesulfonyl)-4-(4-methoxybenzoylamino)-piperidine]
35.5 | 0.55 | 310 | 0.4 | – | – | COc1ccc(C(=O)N[C@@H]2CCN(S(=O)(=O)c3ccc(-c4ccc(OC)cc4)cc3)[C@@H](C(=O)NO)C2)cc1 [Compound 48, (2R, 4R)-2-Hydroxyaminocarbonyl-4-(4-methoxybenzoylamino)-1-[4-(4-methoxyphenyl)benzenesulfonyl]-piperidine]
– | 0.25 | 130 | 0.26 | 2600 | – | COc1ccc(-c2ccc(S(=O)(=O)N3CC[C@@H](NC(=O)CCC(C)C)C[C@@H]3C(=O)NO)cc2)cc1 [Compound 49, (2R, 4R)-2-Hydroxyaminocarbonyl-1-[4-(4-methoxyphenyl)benzenesulfonyl]-4-(4-methylpentanoylamino)-piperidine]
– | 73 | 35 | 44 | 8400 | – | COc1ccc(C(=O)N[C@@H]2CCN(S(=O)(=O)c3cccs3)[C@@H](C(=O)NO)C2)cc1 [Compound 50, (2R, 4R)-2-Hydroxyaminocarbonyl-4-(4-methoxybenzoylamino)-1-(2-thiophenesulfonyl)-piperidine]
– | 80 | 31 | 75 | 6.5 | – | CC(C)CCC(=O)N[C@@H]1CCN(S(=O)(=O)c2cccs2)[C@@H](C(=O)NO)C1 [Compound 51, (2R, 4R)-2-Hydroxyaminocarbonyl-4-(4-methylpentanoylamino)-1-(2-thiophenesulfonyl)-piperidine]
48.9 | 210 | 79 | 420 | – | – | COc1ccc(-c2cccc(S(=O)(=O)N3CC[C@@H](NC(=O)CCC(C)C)C[C@@H]3C(=O)NO)c2)cc1 [Compound 52, (2R, 4R)-2-Hydroxyaminocarbonyl-1-[3-(4-methoxyphenyl)benzenesulfonyl]-4-(4-methylpentanoylamino)-piperidine]
53 | 960 | 2000 | 6900 | – | – | CC(C)CCC(=O)N[C@@H]1CCN(S(=O)(=O)c2cccc(-c3ccc(O)cc3)c2)[C@@H](C(=O)NO)C1 [Compound 53, (2R, 4R)-2-Hydroxyaminocarbonyl-1-[3-(4-hydroxyphenyl)benzenesulfonyl]-4-(4-methylpentanoylamino)-piperidine]
45.8 | 380 | 200 | 1800 | – | – | COc1ccc(-c2ccccc2S(=O)(=O)N2CC[C@@H](NC(=O)CCC(C)C)C[C@@H]2C(=O)NO)cc1 [Compound 54, (2R, 4R)-2-Hydroxyaminocarbonyl-1-[2-(4-methoxyphenyl)benzenesulfonyl]-4-(4-methylpentanoylamino)-piperidine]
29.5 | 2400 | 3000 | – | – | 34.8 | CC(C)CCC(=O)N[C@@H]1CCN(S(=O)(=O)c2ccccc2-c2ccc(O)cc2)[C@@H](C(=O)NO)C1 [Compound 55, (2R, 4R)-2-Hydroxyaminocarbonyl-1-[2-(4-hydroxyphenyl)benzenesulfonyl]-4-(4-methylpentanoylamino)-piperidine]
– | 0.49 | 16 | 0.36 | 1300 | – | COc1ccc(-c2ccc(S(=O)(=O)N3CC[C@@H](NCc4ccccc4)C[C@@H]3C(=O)NO)cc2)cc1 [Compound 56, (2R, 4R)-4-Benzylamino-2-hydroxyaminocarbonyl-1-[4-(4-methoxyphenyl)benzenesulfonyl]-piperidine]
– | 1.8 | 100 | 11 | 460 | – | CC(C)CCC(=O)N[C@@H]1CCN(S(=O)(=O)c2ccc(-c3ccc(O)cc3)cc2)[C@@H](C(=O)NO)C1 [Compound 57, (2R, 4R)-2-Hydroxyaminocarbonyl-1-[4-(4-hydroxyphenyl)benzenesulfonyl]-4-(4-methylpentanoylamino) piperidine]
57.6 | 180 | 95 | 11 | – | – | COc1ccc(-c2ccc(S(=O)(=O)N3CC[C@@H](NC(=O)c4ccccc4)C[C@@H]3C(=O)NO)cc2)cc1 [Compound 59, (2R, 4R)-4-Benzoylamino-2-hydroxyaminocarbonyl-1-[4-(4-methoxyphenyl)benzenesulfonyl]-piperidine]
